Counter-ions that a name gives are not always drawn.
| melting point | Compound |
| --- | --- |
| 136 to 140 °C | Cc1c(COc2ccc(CNCCO)cc2Br)cccc1-c1cccc(COc2ccc(CNCCO)cc2Br)c1C (as salt: trifluoroacetic acid salt) [Example 5, 2,2′-((((((2,2′-Dimethyl-[1,1′-biphenyl]-3,3′-diyl)bis(methylene))bis(oxy))bis(3-bromo-4,1-phenylene))bis(methylene))bis(azanediyl))bis(ethan-1-ol) di-trifluoroacetic acid salt] |
| 230 to 234 °C | Cc1c(COc2ccc(CNC(C)(C)C(=O)O)cc2Br)cccc1-c1cccc(COc2ccc(CNC(C)(C)C(=O)O)cc2Br)c1C (as salt: trifluoroacetic acid salt) [Example 14, 2,2′-((((((2,2′-Dimethyl-[1,1′-biphenyl]-3,3′-diyl)bis(methylene))bis(oxy))bis(3-bromo-4,1-phenylene))bis(methylene))bis(azanediyl))bis(2-methylpropanoic acid) di-trifluoroacetic acid salt] |
| 243 to 247 °C | Cc1c(COc2ccc(CN[C@@H](C)C(=O)O)cc2Br)cccc1-c1cccc(COc2ccc(CN[C@@H](C)C(=O)O)cc2Br)c1C (as salt: trifluoroacetic acid salt) [Example 15, (2S,2′S)-2,2′-((((((2,2′-Dimethyl-[1,1′-biphenyl]-3,3′-diyl)bis(methylene))bis(oxy))bis(3-bromo-4,1-phenylene))bis(methylene))bis(azanediyl))dipropionic acid di-trifluoroacetic acid salt] |
| 186 to 190 °C | Cc1c(COc2ccc(CN[C@H](C)C(=O)O)cc2Br)cccc1-c1cccc(COc2ccc(CN[C@H](C)C(=O)O)cc2Br)c1C (as salt: trifluoroacetic acid salt) [Example 16, (2R,2′R)-2,2′-((((((2,2′-Dimethyl-[1,1′-biphenyl]-3,3′-diyl)bis(methylene))bis(oxy))bis(3-bromo-4,1-phenylene))bis(methylene))bis(azanediyl))dipropionic acid di-trifluoroacetic acid salt] |
| 156 to 160 °C | Cc1c(COc2ccc(CN[C@H](CO)C(=O)O)cc2Br)cccc1-c1cccc(COc2ccc(CN[C@H](CO)C(=O)O)cc2Br)c1C (as salt: trifluoroacetic acid salt) [Example 17, (2R,2′R)-2,2′-((((((2,2′-Dimethyl-[1,1′-biphenyl]-3,3′-diyl)bis(methylene))bis(oxy))bis(3-bromo-4,1-phenylene))bis(methylene))bis(azanediyl))bis(3-hydroxypropanoic acid) di-trifluoroacetic acid salt] |
| 227 to 231 °C | Cc1c(COc2ccc(CN[C@@H](C(=O)O)[C@H](C)O)cc2Br)cccc1-c1cccc(COc2ccc(CN[C@@H](C(=O)O)[C@H](C)O)cc2Br)c1C (as salt: trifluoroacetic acid salt) [Example 18, (2R,2′R,3S,3′S)-2,2′-((((((2,2′-Dimethyl-[1,1′-biphenyl]-3,3′-diyl)bis(methylene))bis(oxy))bis(3-bromo-4,1-phenylene))bis(methylene))bis(azanediyl))bis(3-hydroxybutanoic acid) di-trifluoroacetic acid salt] |
| 175 °C (dec.) | C#Cc1cc(CN2CCCC[C@H]2C(=O)O)ccc1OCc1cccc(-c2cccc(COc3ccc(CN4CCCC[C@H]4C(=O)O)cc3C#C)c2C)c1C (as salt: trifluoroacetic acid salt) [Example 26, (2S,2′S)-1,1′-(((((2,2′-Dimethyl-[1,1′-biphenyl]-3,3′-diyl)bis(methylene))bis(oxy))bis(3-ethynyl-4,1-phenylene))bis(methylene))bis(piperidine-2-carboxylic acid) di-trifluoroacetic acid salt] |
| 131 to 135 °C | CCc1cc(CN2CCCC[C@H]2C(=O)O)ccc1OCc1cccc(-c2cccc(COc3ccc(CN4CCCC[C@H]4C(=O)O)cc3CC)c2C)c1C (as salt: trifluoroacetic acid salt) [Example 27, (2S,2′S)-1,1′-(((((2,2′-Dimethyl-[1,1′-biphenyl]-3,3′-diyl)bis(methylene))bis(oxy))bis(3-ethyl-4,1-phenylene))bis(methylene))bis(piperidine-2-carboxylic acid) di-trifluoroacetic acid salt] |
| 134 to 138 °C | CSc1cc(CN2CCCC[C@H]2C(=O)O)ccc1OCc1cccc(-c2cccc(COc3ccc(CN4CCCC[C@H]4C(=O)O)cc3SC)c2C)c1C (as salt: trifluoroacetic acid salt) [Example 28, (2S,2′S)-1,1′-(((((2,2′-Dimethyl-[1,1′-biphenyl]-3,3′-diyl)bis(methylene))bis(oxy))bis(3-(methylthio)-4,1-phenylene))bis(methylene))bis(piperidine-2-carboxylic acid) di-trifluoroacetic acid salt] |
| 142 to 146 °C | Cc1c(COc2ccc(CN3CCCC[C@H]3C(=O)O)cc2C(F)F)cccc1-c1cccc(COc2ccc(CN3CCCC[C@H]3C(=O)O)cc2C(F)F)c1C (as salt: trifluoroacetic acid salt) [Example 29, (2S,2′S)-1,1′-(((((2,2′-Dimethyl-[1,1′-biphenyl]-3,3′-diyl)bis(methylene))bis(oxy))bis(3-(difluoromethyl)-4,1-phenylene))bis(methylene))bis(piperidine-2-carboxylic acid) di-trifluoroacetic acid salt] |
| 223 to 227 °C | Cc1c(COc2ccc(CN(CC(=O)O)CC(=O)O)cc2Br)cccc1-c1cccc(COc2ccc(CN(CC(=O)O)CC(=O)O)cc2Br)c1C (as salt: trifluoroacetic acid salt) [Example 30, 2,2′,2″,2′″-((((((2,2′-Dimethyl-[1,1′-biphenyl]-3,3′-diyl)bis(methylene))bis(oxy))bis(3-bromo-4,1-phenylene))bis(methylene))bis(azanetriyl))tetraacetic acid di-trifluoroacetic acid salt] |
| 118 to 122 °C | Cc1c(COc2ccc(CN(CCO)CCO)cc2Br)cccc1-c1cccc(COc2ccc(CN(CCO)CCO)cc2Br)c1C (as salt: trifluoroacetic acid salt) [Example 31, 2,2′,2″,2′″-((((((2,2′-Dimethyl-[1,1′-biphenyl]-3,3′-diyl)bis(methylene))bis(oxy))bis(3-bromo-4,1-phenylene))bis(methylene))bis(azanetriyl))tetrakis(ethan-1-ol) di-trifluoroacetic acid salt] |
| 148 to 152 °C | Cc1c(COc2ccc(CNC(CO)CO)cc2Br)cccc1-c1cccc(COc2ccc(CNC(CO)CO)cc2Br)c1C (as salt: trifluoroacetic acid salt) [Example 32, 2,2′-((((((2,2′-Dimethyl-[1,1′-biphenyl]-3,3′-diyl)bis(methylene))bis(oxy))bis(3-bromo-4,1-phenylene))bis(methylene))bis(azanediyl))bis(propane-1,3-diol) di-trifluoroacetic acid salt] |
| 134 to 138 °C | Cc1c(COc2ccc(CNC(C)(CO)CO)cc2Br)cccc1-c1cccc(COc2ccc(CNC(C)(CO)CO)cc2Br)c1C (as salt: trifluoroacetic acid salt) [Example 33, 2,2′-((((((2,2′-Dimethyl-[1,1′-biphenyl]-3,3′-diyl)bis(methylene))bis(oxy))bis(3-bromo-4,1-phenylene))bis(methylene))bis(azanediyl))bis(2-methylpropane-1,3-diol) di-trifluoroacetic acid salt] |
